Patent publication US11723362B2, “Broad-spectrum synergistic antimicrobial compositions” (The United States of America, as represented by the …, priority 2019, dated 2023)

Key:
[1] = test system: Aspergillus brasiliensis ATCC 16404; assay: Effect of pH on antifungal properties of HW formula under high fungal load; type: cell-based; conditions: 10^7 CFU/mL, pH 5.5-9.5
Description: FIG. 1 illustrates the fungicidal properties of a handwash formula containing the inventive composition as further explained in the examples below. The Y axis presents the log reduction of cell forming units per mL (CFU/mL). The X axis presents the pH of the different formulas. Data for benzaldehyde guanylhydrazone 7+CHA is shown with black lines (BGH+CHA); data for benzaldehyde guanylhydrazone 7 (BGH) is shown with dotted lines; data for CHA alone is shown with grey lines.
(§1) This example illustrates the surprising synergistic antimicrobial activity of the inventive composition and related compositions for comparison tested on two of the most persistent microorganisms tested in the USP 51 protocol: A. brasiliensis (ATCC No. 16404) and P. aeruginosa (ATCC NO. 9027). The effect of pH on antifungal properties of a HW formula containing 0.4% 7 and 0.5% CHA, alone and in combination, was then evaluated under a high fungal load (10^7 CFU/mL). […] Without intending to be bound by theory, it was suspected that the poor performance of the combination at neutral pH results from the milder conditions of this formula, which is more encouraging to mold growth.

P. aeruginosa = assay: Minimum inhibitory concentration (MIC) in Mueller-Hinton broth, pH 7.4; type: cell-based, Pseudomonas aeruginosa; parameters: Minimum inhibitory concentration: unit not given here; conditions: for Minimum inhibitory concentration: Table 2, ATCC 9027
Description: (§2) This example illustrates the preparation of testing parameters for antimicrobial activity of components of the inventive composition and related compositions for comparison. […] Microbes were grown on Mueller-Hinton agar (MHA, Sigma-Aldrich, St. Louis, Mo.) for 7 days until heavy sporulation was present. Spores from two agar plates were captured in sterile phosphate-buffered saline (PBS) using a sterile swab. Spores were enumerated by serial dilution in Dey-Engley neutralizing broth (DEB; Sigma-Aldrich) and spread plating on MHA. A typical spore stock was determined to contain ˜2×10^7 spores/mL. Bacteria were grown in MH broth for 24 h at 37° C., enumerated by plating, and diluted to the desired concentration as indicated.
(§3) To assess the antimicrobial activity of hydroxamic acids and derivatives, the inhibitory properties of commercially available hydroxylamines and hydroxamic acids were compared to their alcohol and carboxylic acid analogues diluted in Mueller-Hinton broth at pH 7.4 (Table 1).
Guanylhydrazones 7 and 8, which represent a class of broad-spectrum antimicrobials, alone and in combination with hydroxamic acids were evaluated.

[2] = test system: Aspergillus brasiliensis ATCC 16404; assay: Fungicidal activity in ionic surfactant hand wash / foamy hand soap base formula (HW); type: cell-based; conditions: HW, pH 7.0; 0.4 wt %; 1 × 10^6 CFU/mL; 25° C.
Description: as §2
All test formulas were adjusted to the desired pH using citric acid and/or NaOH. […] All tubes were kept at room temperature (˜21-22° C.) for 3 weeks. About 100 μL of each inoculated foamy hand soap mixture was diluted 1:10 in DEB and 100 μL of this dilution was spread plated on MHA at several time points (e.g. 3 d, 7 d, 13 d, 18 d, and 20 d). Plates were incubated at room temperature for 3-5 days for mold (1-2 days for bacteria) and colonies enumerated.
The preservative activity of a hydroxamic acid/guanylhydrazone combination was compared to other antimicrobial mixtures in an ionic surfactant-containing formula. […] The fungicidal properties of a mixture of benzhydroxamic acid and guanylhydrazone (1+7) was compared to commercial antimicrobials representing different functional classes (Table 3).

[3] = test system: Pseudomonas aeruginosa ATCC 9027; assay: Bactericidal activity in ionic surfactant hand wash / foamy hand soap base formula (HW); type: cell-based; conditions: HW, pH 7.0; substance alone 0.1%; 1 × 10^6 CFU/ml; 37° C.
Description: This example illustrates the preparation of testing parameters for antimicrobial activity of components of the inventive composition and related compositions for comparison. […] Mold were grown and minimum inhibitory tests performed as previously reported (see e.g., Buckley, H. L. et al. ACS Sustain. Chem. Eng. 5, 4320-4331, 2017). Microbes were grown on Mueller-Hinton agar (MHA, Sigma-Aldrich, St. Louis, Mo.) for 7 days until heavy sporulation was present. Spores from two agar plates were captured in sterile phosphate-buffered saline (PBS) using a sterile swab. Spores were enumerated by serial dilution in Dey-Engley neutralizing broth (DEB; Sigma-Aldrich) and spread plating on MHA. A typical spore stock was determined to contain ˜2×10^7 spores/mL. Bacteria were grown in MH broth for 24 h at 37° C., enumerated by plating, and diluted to the desired concentration as indicated.
To test the various compounds, a foamy hand soap base formula was made with sodium lauryl sulfate (SLS, 2.4% w/w; Sulfochem SLS-PHP [30% active], The Lubrizol Corporation, Wickliffe, Ohio) and cocoamidopropyl betaine (CAPB, 1.2% w/w; Mackam 35 [30% active], Solvay S.A, Brussels, Belgium) in deionized water and sterilized by filtration (0.22 μm, PVDF; VWR, Radnor, Pa.). All test formulas were adjusted to the desired pH using citric acid and/or NaOH. All tubes were inoculated with 250 μL of spore inoculum (described above) to a total volume of 5 mL, for a final spore concentration of ˜1×10^6 spores/mL in each tube. […] About 100 μL of each inoculated foamy hand soap mixture was diluted 1:10 in DEB and 100 μL of this dilution was spread plated on MHA at several time points (e.g. 3 d, 7 d, 13 d, 18 d, and 20 d). Plates were incubated at room temperature for 3-5 days for mold (1-2 days for bacteria) and colonies enumerated.

A. brasiliensis 16404 = assay: USP-51 preservative challenge test of anionic, amphoteric surfactant-containing hand wash; type: cell-based, Aspergillus brasiliensis; conditions: HW pH 6; formulas: 0.4% 7; 0.5% CHA; 0.2% 7 + 0.5% CHA
Description: (§4) Preservative challenge testing (USP-51).
as §1

[4] = Stability of CG in commercial household products; type: physicochemical; conditions: nonionic spray cleaners, polishes, hand soap, liquid dish soap; refrigerator (2.8° C.), room temperature (21.1° C.), oven (40° C.), 3 freeze-thaw cycles
Description: Freeze-thaw studies were conducted using a commercial refrigerator freezer and were completed over a two week period where the samples were frozen, thawed and observed for 3 cycles. Additional samples were stored in 15 mL Falcon tubes in the refrigerator, at room temperature and in a 40° C. oven. These samples were removed and evaluated at three time points in conjunction with the freeze-thaw samples. The compositions of the household products in which CG was stable are listed below in tables 13 and 14. The “Surfactant Control” was composed as follows: 4% 1,3-propanediol, 4% alkyl polyglucoside (C8-C16), 2% ethoxylated fatty alcohol (Clariant Genapol LA 070), 90% deionized water. Cuminaldehyde Guanylhydrazone (CG) was added to several different commercial products. Stability testing was performed in refrigerator (2.8° C.), at room temperature (21.1° C.), in an oven (40° C.), and through 3 freeze-thaw cycles. It was determined that CG was stable in at least 4 different classes of household products including nonionic spray cleaners, polishes, hand soap, and liquid dish soap. […] Not intending to be theory-bound, these instabilities may be attributed mainly to carbonate, anionic surfactants, or high pH.

S. enterica ATCC 10708 = assay: AOAC Use Dilution test; type: cell-based, Salmonella enterica; conditions: 60 carriers tested, ten minutes contact time
Description: (§5) MICROCHEM Laboratories completed the AOAC Use dilution, semi-quantitative test method against the 3 strains of bacteria using the maximum contact time of ten minutes with three replicates from the same sample submission. For the S. aureus testing, MICROCHEM Laboratories followed ASTM E2315 method with a 10 minute exposure but only a single replicate was tested. The ASTM E2315 quantitative test method was used by MICROCHEM Laboratories to access the performance of a single replicate of the test compounds against the MS2 virus using a 10 minute contact time.
(§6) The killing efficacy of Cuminaldehyde Guanylhydrazone (CG) in water against three bacteria was evaluated using the AOAC Use Dilution test. While a passing kill rate against Pseudomonas aeruginosa, and a close to, but just below the target kill rate, for Salmonella enterica were detected, a kill rate against Staphylococcus aureus was not achieved. The test results were the same for both concentrations tested (0.2 wt. % and 0.5 wt. %).

mold = assay: USP <51> preservative efficacy in nonionic spray cleaner base (mold); type: cell-based, A. brasiliensis; conditions: alone, 0.1% in spray cleaner base
Description: as §4

[5] = test system: E. coli, S. aureus, P. aeruginosa, A. brasiliensis, B. cepacia, and C. albicans; conditions: 0.2% in nonionic spray cleaner base lacking additional preservatives; 28 days
Description: Preservative challenge testing (USP-51). The protocol for the preservative challenge testing followed the US Pharmacopeia Chapter 51 (USP 51). Under the USP 51 protocol, the test organisms are Candida albicans (ATCC No. 10231), Aspergillus brasiliensis (also referred to as A. niger) (ATCC No. 16404), Escherichia coli (ATCC No. 8739), Pseudomonas aeruginosa (ATCC No. 9027), and Staphylococcus aureus (ATCC No. 6538). To access the potency of a preservative in a personal care product formula, microorganisms were added separately to a sample of the product formula, such that their final concentrations were between 1.00E+05 and 1.00E+06 CFU (colony forming units)/mL of product. The inoculated personal care product formulas were incubated at specific temperatures (relative to the organism) and plated over the course of two weeks. During plating, the number of colony-forming units (CFU's) were counted to determine the number of viable microbial cells still present in the solution. Antimicrobial effectiveness is determined by logarithmic reductions in growth over time.
The effect of CG on mold, bacteria, and yeast were tested following the USP <51> procedure. […] For the instant examples, the criteria for passing the USP 51 preservative efficacy protocol against bacteria is a reduction of not less than 2-log 10 from the initial count at 14 days, and no increase from the 14 day count at 28 days. […]

S. aureus ATCC 6538 = assay: AOAC Use Dilution test; type: cell-based, Staphylococcus aureus; conditions: 60 carriers tested, ten minutes contact time
Description: as §5, §6

P. aeruginosa ATCC 15442 = assay: AOAC Use Dilution test; type: cell-based, Pseudomonas aeruginosa; conditions: 60 carriers tested, ten minutes contact time
Description: as §5, §6

E. coli = assay: Minimum inhibitory concentration (MIC) in Mueller-Hinton broth, pH 7.4; type: cell-based, Escherichia coli
Description: as §2, §3

C. albicans = assay: as above; type: cell-based, Candida albicans
Description: as §2, §3

[6] = Dissolution / compatibility in water (observation); type: physicochemical; conditions: solubilizing for testing; room temperature
Description: Several aryl derivatives of benzhydroxamic acid were also tested.

A. brasiliensis = assay: Minimum inhibitory concentration (MIC) in Mueller-Hinton broth, pH 7.4; type: cell-based, Aspergillus brasiliensis; parameters: Minimum inhibitory concentration: unit not given here
Description: as §2, §3

S. aureus = assay: as above; type: cell-based, Staphylococcus aureus
Description: as §2, §3

For N=C(N)NN=Cc1ccccc1 [Benzaldehyde guanylhydrazone 7, Benzaldehyde guanylhydrazone], the “antifungal performance over the pH range” value ([1]; HW with 0.4% 7 alone) was “poor performance, except at high pH”, the Minimum inhibitory concentration (P. aeruginosa) was 0.06 and the “Log reduction Week 2” value [2] was “none”. The “Day 3 Log Reduction” value [3] was 4 Log, the “Day 10 Log Reduction” value [3] was 4 Log and the “Log10 Reduction, Day 6” value (A. brasiliensis 16404) was 0.35 Log10.

In the case of CC(C)c1ccc(/C=N/NC(=N)N)cc1 [CG, (2E)-2-{[4-(propan-2-yl)phenyl]methylidene} hydrazine-1-carboximidamidium], the “stability in household products” value [4] was “stable”, the “Confirmed Positive carriers” value (S. enterica ATCC 10708; CG 0.2 wt. % in water) was 2 and the Result (S. enterica ATCC 10708; CG 0.2 wt. % in water) was “Fail (2)”. For the same molecule, the “Confirmed Positive carriers” value (S. enterica ATCC 10708; CG 0.5 wt. % in water) was 2, the Result (S. enterica ATCC 10708; CG 0.5 wt. % in water) was “Fail (2)” and the “log reduction of mold (not eliminated to nondetectable levels)” value (mold) was < 4 log. For the same molecule, the “USP 51 preservative efficacy protocol result against bacteria, yeast, and mold” value [5] was “passed”, the “Confirmed Positive carriers” value (S. aureus ATCC 6538; CG 0.2 wt. % in water) was 12 and the Result (S. aureus ATCC 6538; CG 0.2 wt. % in water) was “Fail (3)”. For the same molecule, the “Confirmed Positive carriers” value (S. aureus ATCC 6538; CG 0.5 wt. % in water) was 12, the Result (S. aureus ATCC 6538; CG 0.5 wt. % in water) was “Fail (3)” and the “Confirmed Positive carriers” value (P. aeruginosa ATCC 15442; CG 0.2 wt. % in water) was 2. The Result (P. aeruginosa ATCC 15442; CG 0.2 wt. % in water) was “Pass (6)”, the “Confirmed Positive carriers” value (P. aeruginosa ATCC 15442; CG 0.5 wt. % in water) was 2 and the Result (P. aeruginosa ATCC 15442; CG 0.5 wt. % in water) was “Pass (6)”.

With CCCCCCCC(=O)NO [Caprylhydroxamic acid (CHA), Caprylhydroxamic acid] the “log reduction over the entire pH range” value ([1]; HW with 0.5% CHA alone, plated six days after inoculation) was 0-1 log, the MIC (E. coli) was 0.1 wt % and the MIC (P. aeruginosa) was 0.5 wt %. For the same molecule, the Minimum inhibitory concentration (P. aeruginosa) was 0.5, the MIC (C. albicans) was 0.03 wt % and the dissolution behaviour [6] was “required heating and stirring to solubilize”. The MIC (A. brasiliensis) was 0.03 wt %, the Minimum inhibitory concentration (A. brasiliensis; Table 2) was 0.03 and the MIC (S. aureus) was 0.2 wt %. For the same molecule, the “Log10 Reduction, Day 6” value (A. brasiliensis 16404) was 2.24 Log10.

With O=C([O-])c1ccccc1.[Na+] [Sodium benzoate, sodium benzoate] the “log reduction of mold (not eliminated to nondetectable levels)” value (mold) was < 2 log.
